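1) Cells in 96-well plates. 2) Compound, 48 h, 5 concentrations. 3) Linear interpolation between surrounding doses. 4) Unreached endpoint = highest concentration. TGI is the concentration that stops growth completely.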
Key:
Assay in all cases: inhibition of tumour cell growth, NCI panel, 48 h
SR leukemia = test system: SR leukemia
COLO 205 colon = test system: COLO 205 colon
M14 melanoma = test system: M14 melanoma
HCC-2998 colon = test system: HCC-2998 colon
NCI-H522 lung = test system: NCI-H522 lung
HOP-92 NSCLC = test system: HOP-92 NSCLC
KM12 colon = test system: KM12 colon
HL-60(TB) leukemia = test system: HL-60(TB) leukemia
A498 renal = test system: A498 renal
SNB-19 CNS = test system: SNB-19 CNS
SNB-75 CNS = test system: SNB-75 CNS
BT-549 breast = test system: BT-549 breast

SMILES | TGI (SR leukemia) | TGI (COLO 205 colon) | TGI (M14 melanoma) | TGI (HCC-2998 colon) | TGI (NCI-H522 lung) | TGI (HOP-92 NSCLC) | TGI (KM12 colon) | TGI (HL-60(TB) leukemia) | TGI (A498 renal) | TGI (SNB-19 CNS) | TGI (SNB-75 CNS) | TGI (BT-549 breast)
Cn1cnc(N2CCCC2)c(C#N)c1=S | > 100 µM | > 100 µM | > 100 µM | > 100 µM | > 100 µM | > 100 µM | > 100 µM | > 100 µM | > 100 µM | > 100 µM | – | –
Cc1c(Cc2ccccc2)n(C(C)OCCN(OC(=O)Oc2ccccc2)C(=O)Oc2ccccc2)c(=O)[nH]c1=O (stereo not drawn) | > 100 µM | 34.9 µM | 32 µM | 31.5 µM | 29.3 µM | 29.7 µM | 29.9 µM | – | – | > 100 µM | 20.6 µM | 33 µM
COc1cccc2c1NC(=O)Cc1c-2[nH]c2ccccc12 | > 100 µM | > 100 µM | > 100 µM | > 100 µM | > 100 µM | > 100 µM | > 100 µM | > 100 µM | > 100 µM | – | > 100 µM | –
O=C1c2ccccc2C(=O)N1n1c(Cc2ccc(Cl)cc2)n[nH]c1=O | > 100 µM | > 100 µM | > 100 µM | > 100 µM | – | > 100 µM | > 100 µM | – | > 100 µM | > 100 µM | > 100 µM | > 100 µM
CCOC(=O)c1[nH]cc(C)c1-c1cccn1-c1ccc(Cl)cc1[N+](=O)[O-] | – | 38.2 µM | 41 µM | 66.3 µM | 34.9 µM | 51.9 µM | 52.9 µM | – | > 100 µM | – | 56.1 µM | 83.7 µM
CSc1cc(Cl)c(C)cc1S(=O)(=O)NC(=O)NNc1ccc(F)cc1 | > 100 µM | > 100 µM | > 100 µM | > 100 µM | > 100 µM | – | > 100 µM | – | > 100 µM | > 100 µM | > 100 µM | –
CCCCCCSc1nc(N)nc2nc[nH]c12 | – | > 100 µM | – | > 100 µM | 40.9 µM | 72.1 µM | > 100 µM | 60.4 µM | > 100 µM | > 100 µM | 71.7 µM | –
CN(C)CCNC(=O)c1cccc2ccc(-c3ccc(Br)cc3)nc12 | – | 2.54 µM | – | 6.32 µM | 4.21 µM | 8.43 µM | 15.5 µM | 4.2 µM | 5.49 µM | 16.7 µM | 10.7 µM | –
CC(=O)C(=O)NC1/C=C(C)\C=C/C(O)C/C=C(C)\C=C/C(O)CC2OC(=O)C1(C)C(=O)C2C (stereo not drawn) | – | > 100 µM | – | > 100 µM | > 100 µM | > 100 µM | > 100 µM | – | > 100 µM | > 100 µM | > 100 µM | –
O=c1c2c3c(sc2nc2n1N=CN(c1ccccc1)C2)CCCC3 | > 100 µM | > 100 µM | > 100 µM | > 100 µM | > 100 µM | > 100 µM | > 100 µM | – | > 100 µM | > 100 µM | > 100 µM | > 100 µM
CC1(C)OC[C@H](C(=N)OCc2ccccc2)O1 | > 100 µM | > 100 µM | > 100 µM | > 100 µM | > 100 µM | > 100 µM | > 100 µM | > 100 µM | > 100 µM | > 100 µM | > 100 µM | –
CN1CCN(C(=O)CCC(=O)Nc2cc3c(c4ccccc24)-c2ccc4ccccc4c2C3)CC1 | – | 3 µM | 2.97 µM | 2.7 µM | 3.2 µM | 3.36 µM | 3.2 µM | – | 27.6 µM | 3.93 µM | – | 2.84 µM
COc1ccc2nc3c([N+](=O)[O-])ccc(NCCN(C)C)c3c(N)c2c1 | 2.9 µM | 2.31 µM | 3.03 µM | – | – | 2.54 µM | 0.939 µM | 0.41 µM | 4.31 µM | 3.98 µM | 2.62 µM | –
CN(c1ccccc1)S(=O)(=O)c1ccc([N+](=O)[O-])cc1 | > 100 µM | > 100 µM | > 100 µM | – | > 100 µM | – | > 100 µM | > 100 µM | – | > 100 µM | – | > 100 µM
Cc1cc2c(c(C(=O)NCC(=O)N[C@@H](C)C(=O)OCc3ccccc3)c1)Oc1c(cc(C)cc1C(=O)NCC(=O)N[C@@H](C)C(=O)OCc1ccccc1)S2 | > 100 µM | > 100 µM | > 100 µM | > 100 µM | – | – | > 100 µM | – | > 100 µM | > 100 µM | 46.1 µM | > 100 µM
CCOC(=O)c1c(NS(=O)(=O)c2ccc(C)cc2)sc2c1CCCC2 | – | 37.9 µM | > 100 µM | – | – | – | 93.8 µM | > 100 µM | > 100 µM | > 100 µM | 66.7 µM | > 100 µM
COc1cc(C2c3cc4c(cc3OC(NNC(N)=O)C2C)OCO4)cc(OC)c1OC (stereo not drawn) | – | 0.613 µM | > 44.9 µM | > 27.2 µM | 0.344 µM | 8.18 µM | > 100 µM | – | 0.0599 µM | > 100 µM | > 87.9 µM | > 100 µM
N#Cc1c(N)oc(-c2ccc([N+](=O)[O-])cc2)c1C#N | > 100 µM | > 100 µM | > 100 µM | > 100 µM | 60.3 µM | 62.9 µM | > 100 µM | > 100 µM | 53.5 µM | 91.6 µM | 47.1 µM | –
O=c1[nH]c(=O)c2ncn(-c3ccc([N+](=O)[O-])cn3)c2[nH]1 | – | > 100 µM | > 100 µM | > 100 µM | – | > 100 µM | > 100 µM | > 100 µM | > 100 µM | > 100 µM | > 100 µM | > 100 µM
COC1OCC(O)C(NC(=O)N(C)N=O)C1O (stereo not drawn) | – | > 100 µM | – | > 100 µM | > 100 µM | > 100 µM | > 100 µM | – | > 100 µM | > 100 µM | > 100 µM | –

— PubChem BioAssay (NCI)
